The target of this experiment is Aurora kinase B (Homo sapiens, UniProt Q96GD4). Nature of the experiment: Isothermal Titration Calorimetry (ITC). The following applies: pH 8; 25 °C. The protocol: Calorimetric titrations were performed in a Microcal iTC 200 microcalorimeter. Freshly purified 5 µM protein (Aurora A/B kinases) was titrated against 100 µM ligand (felodipine/ PTK66) in each case at 25 °C. Proteins and the ligandswere diluted in the final dialysate (20 mM Tris-HCl, pH 8.0, 0.2 mM EDTA and 100 mM KCl) against which the proteins were extensively dialysed to avoid any artefact due to the minor differences in buffer composition. DMSO content was kept exactly same in the cell (not exceeding 0.2% v/v) and syringe to rule out any interference due to DMSO content mismatch. All samples were thoroughly degassed prior to titration and were prepared with the same batch of dialysate to avoid any artefacts from the minor differences in buffer composition. Dilutions of 100 µM felodipine/PTK66 in dialysate containing equal percentage of DMSOserved as controls. The stirring speed was 300 rpm.
Aurora kinase B, sequence (Q96GD4 whole entry): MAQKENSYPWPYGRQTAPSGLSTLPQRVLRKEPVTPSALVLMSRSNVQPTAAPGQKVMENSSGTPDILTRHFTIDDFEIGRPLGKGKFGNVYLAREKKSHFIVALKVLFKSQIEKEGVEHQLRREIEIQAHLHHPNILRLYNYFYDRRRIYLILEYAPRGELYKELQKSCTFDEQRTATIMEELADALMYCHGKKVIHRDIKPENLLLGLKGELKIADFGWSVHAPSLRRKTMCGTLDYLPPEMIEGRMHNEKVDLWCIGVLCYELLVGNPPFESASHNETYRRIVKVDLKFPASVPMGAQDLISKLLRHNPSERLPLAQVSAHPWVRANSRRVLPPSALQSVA

Values joined by “and” are separate entries in the source; they are usually repeats but may differ in a detail not shown here. Identical values can stand only once.

Compound `CCOC(=O)C1=C(C)NC(C)=C(C(=O)OC)[C@H]1c1cccc(Cl)c1Cl` [5-O-ethyl 3-O-methyl 4-(2,3-dichlorophenyl)-2,6-dimethyl-1,4-dihydropyridine-3,5-dicarboxylate] returned a Kd of 1140 nM. Then `Cc1cc(O)cc(O)c1/N=N/c1nccs1` [5-methyl-4-(2-thiazolylazo)resorcinol], with 1750 nM and 500 nM.

What is called Kd is the equilibrium constant for the complex coming apart. Low values mean a tighter complex, high ones a looser complex.

The record behind these values is BindingDB's records for doi:10.1111/cbdd.12728 (Jawaharlal Nehru Centre For Advanced Scientific Research, 2016).
